# According to patent US20040044007A1, “Indoline derivatives” (H. Lundbeck A/S, priority 2000, published 2004):
# Where a name gives a salt, the structure may show the parent alone.
# Legend:
# [1] = target: T1, human cloned dopamine D4.2 receptors (Homo sapiens, UniProt P21917, DEL265-296); experiment: Inhibition of the binding of [3H]YM-09151-2 to D4.2 receptors; details: [3H]YM-09151-2 0.06 nM; for % inhib. at the D4-receptor: % inhibition of binding at 50 nM; for IC50: membranes of CHO-cells, read-out: IC50 (nM) at the D4-receptor
# T1 construct: expressed in transfected cells; host or cells: CHO cells
# T1 sequence (P21917 with tags, fused parts or gaps DEL265-296): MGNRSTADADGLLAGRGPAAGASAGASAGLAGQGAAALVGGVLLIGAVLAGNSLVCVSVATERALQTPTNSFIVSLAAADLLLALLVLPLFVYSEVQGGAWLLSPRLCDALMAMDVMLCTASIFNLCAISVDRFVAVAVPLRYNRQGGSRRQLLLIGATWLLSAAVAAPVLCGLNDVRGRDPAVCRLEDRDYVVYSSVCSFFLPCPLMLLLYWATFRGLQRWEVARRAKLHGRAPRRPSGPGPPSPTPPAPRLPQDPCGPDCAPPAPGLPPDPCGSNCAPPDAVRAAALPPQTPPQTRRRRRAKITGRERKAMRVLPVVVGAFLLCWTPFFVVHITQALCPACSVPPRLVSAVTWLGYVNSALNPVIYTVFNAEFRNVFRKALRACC
# Excerpt: The method is modified from NEN Life Science Products, Inc., technical data certificate PC2533-10/96.
# [2] = target: T2, 5-HT2A receptors (Rattus norvegicus, UniProt P14842); experiment: Inhibition of the binding of [3H]Ketanserin to 5-HT2A receptors; details: [3H]Ketanserin 0.50 nM, membranes from rat brain (cortex); read-out: IC50 (nM) at the 5HT2A-receptor
# T2 construct: membranes from rat brain (cortex) in vitro; from tissue; host or cells: rat brain cortex membranes
# T2 sequence (P14842 whole entry): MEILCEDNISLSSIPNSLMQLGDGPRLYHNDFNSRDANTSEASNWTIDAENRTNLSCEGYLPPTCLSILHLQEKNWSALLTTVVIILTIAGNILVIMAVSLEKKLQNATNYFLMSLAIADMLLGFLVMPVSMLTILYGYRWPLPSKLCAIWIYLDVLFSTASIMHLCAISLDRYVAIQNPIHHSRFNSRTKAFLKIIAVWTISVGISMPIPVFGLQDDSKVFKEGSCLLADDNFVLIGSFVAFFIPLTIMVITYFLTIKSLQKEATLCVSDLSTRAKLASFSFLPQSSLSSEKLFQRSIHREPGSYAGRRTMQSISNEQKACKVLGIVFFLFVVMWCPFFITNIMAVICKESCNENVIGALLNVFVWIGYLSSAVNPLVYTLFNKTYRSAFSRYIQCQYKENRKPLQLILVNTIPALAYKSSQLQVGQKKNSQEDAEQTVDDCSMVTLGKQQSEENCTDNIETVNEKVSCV
# Experimental: Inhibition of the Binding of [^3H]Ketanserin to 5-HT2A Receptors
# The compounds were tested with respect to their affinity for 5-HT2A receptors by determining their ability to inhibit binding of [^3H]Ketanserin (0.50 nM) to membranes from rat brain (cortex) in vitro. Method described in Sanchez et al. Drug Dev. Res. 1991, 22, 239-250.
# [3] = target: T3, D4 receptor (Homo sapiens, UniProt P21917); details: various in vitro efficacy assays (Gazi et al.); cited from earlier work
# T3 sequence (P21917 1-419): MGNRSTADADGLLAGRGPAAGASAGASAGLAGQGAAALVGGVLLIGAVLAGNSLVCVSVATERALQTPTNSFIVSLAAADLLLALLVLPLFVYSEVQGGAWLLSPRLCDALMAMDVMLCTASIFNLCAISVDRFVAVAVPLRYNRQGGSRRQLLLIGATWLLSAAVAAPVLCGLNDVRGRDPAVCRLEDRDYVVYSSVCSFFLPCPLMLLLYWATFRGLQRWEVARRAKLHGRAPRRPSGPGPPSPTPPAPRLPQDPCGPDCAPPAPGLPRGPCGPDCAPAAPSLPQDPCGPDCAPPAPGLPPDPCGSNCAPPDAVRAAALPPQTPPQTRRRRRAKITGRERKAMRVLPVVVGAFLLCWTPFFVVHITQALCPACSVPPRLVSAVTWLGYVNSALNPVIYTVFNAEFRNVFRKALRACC
SMILES,melting point,% inhib. at the D4-receptor [1],IC50 [1],IC50 [2],Functional activity at D4 receptor [3]
"CC(=O)N1CC(CCN2CCN(c3ccc(Cl)c(Cl)c3)CC2)c2ccccc21 (single isomer, unassigned; (+)) (as salt: hydrochloride) [Compound 1d, (+)-1-[2-(1-Acetyl-2,3-dihydro-1H-indol-3-yl)ethyl]-4-(3,4-dichlorophenyl)piperazine, hydrochloride]",184 to 186 °C,,,,
"CC(=O)N1CC(CCN2CCN(c3ccc(C)c(C)c3)CC2)c2ccccc21.Cl (single isomer, unassigned; (+)) [Compound 1a, (+)-1-[2-(1-Acetyl-2,3-dihydro-1H-indol-3-yl)ethyl]-4-(3,4-dimethylphenyl)piperazine, hydrochloride]",,88%,< 50 nM,5 nM,
"CC(=O)N1CC(CCN2CCN(c3ccc(C)cc3)CC2)c2ccccc21.Cl (single isomer, unassigned; (+)) [Compound 1b, (+)-1-[2-(1-Acetyl-2,3-dihydro-1H-indol-3-yl)ethyl]-4-(4-methylphenyl)piperazine, hydrochloride]",217 to 220 °C,88%,< 50 nM,15 nM,
"CC(=O)N1CC(CCN2CCC(c3ccc(C)cc3)CC2)c2ccccc21 (single isomer, unassigned; (+)) [Compound 1c, (+)-1-[2-(1-Acetyl-2,3-dihydro-1H-indol-3-yl)ethyl]-4-(4-methylphenyl)piperidine]",112 to 114 °C,76%,< 50 nM,17 nM,
"CC(=O)N1CC(CCN2CCN(c3ccc(Cl)c(Cl)c3)CC2)c2ccccc21 (single isomer, unassigned; (+)) [Compound 1d, (+)-1-[2-(1-Acetyl-2,3-dihydro-1H-indol-3-yl)ethyl]-4-(3,4-dichlorophenyl)piperazine, hydrochloride]",,86%,< 50 nM,21 nM,
"CC(=O)N1CC(CCN2CCN(c3ccc(Br)cc3)CC2)c2ccccc21 (stereo not drawn) [Compound 1e, (+)-]-[2-(1-Acetyl-2,3-dihydro-1H-indol-3-yl)ethyl]-4-(4-bromophenyl)piperazine, hydrochloride]",,95%,< 50 nM,17 nM,
"CC(=O)N1CC(CCN2CC=C(c3ccc(Cl)c(Cl)c3)CC2)c2ccccc21 (centres unmarked) [Compound 1f, ]-[2-(1-Acetyl-2,3-dihydro-1H-indol-3-yl)ethyl]-4-(3,4-dichlorophenyl)-3,6-dihydro-2H-pyridine, hydrochloride]",,,13 nM,27 nM,
"CC(=O)N1CC(CCN2CCC(c3ccc(Cl)c(Cl)c3)CC2)c2ccccc21 (centres unmarked) [Compound 1g, 1-[2-(1-Acetyl-2.3-dihydro-1H-indol-3-yl)ethyl]-4-(3.4-dichlorophenyl)piperidine, hydrochloride]",,,5.4 nM,21 nM,
CC(C)Oc1cccnc1N(C)C1CCN(Cc2ccccc2)CC1 [Compound U-101958],,,,,partial D4 receptor agonists
